{"source": "EPA's ToxValDB 9.5 (doi:10.2903/j.efsa.2014.3508)", "key": {"Aphidius rhopalosiphi": {"system": "Aphidius rhopalosiphi", "experiment": "LR50; higher = less toxic", "details": "acute; duration: 48 hours; mortality"}, "Typhlodromus pyri": {"system": "Typhlodromus pyri", "experiment": "LR50; higher = less toxic", "details": "chronic/long-term; duration: 7 days; mortality"}, "Oryctolagus sp.": {"system": "Oryctolagus sp.", "details": "developmental; development"}, "Oncorhynchus mykiss": {"system": "Oncorhynchus mykiss", "details": "chronic/long-term; duration: 87 days; growth"}, "Apis mellifera": {"system": "Apis mellifera", "details": "acute, mortality"}, "Daphnia magna": {"system": "Daphnia magna", "details": "chronic/long-term; duration: 21 days; mobility"}, "Colinus virginianus": {"system": "Colinus virginianus", "details": "acute, oral, mortality"}, "Lepomis macrochirus": {"system": "Lepomis macrochirus", "details": "acute; duration: 96 hours; mortality"}, "Coturnix japonica": {"system": "Coturnix japonica", "details": "reproduction developmental; duration: 6 weeks; reproduction"}}}
{"smiles": "CCOc1nc(NC)nc(NC(=O)NS(=O)(=O)c2ccccc2C(=O)OC)n1", "note": "[Ethametsulfuron-methyl]", "values": [{"measurement": "LR50", "setting": "Aphidius rhopalosiphi", "value": "> 18.8", "unit": "g/ha"}, {"measurement": "LR50", "setting": "Typhlodromus pyri", "value": 11.4, "unit": "g/ha"}, {"measurement": "LD50", "setting": "Rattus norvegicus; acute, oral, mortality", "value": "> 5000", "unit": "mg/kg-day"}, {"measurement": "NOAEL", "setting": "Rattus norvegicus; chronic, duration: 2 years, clinical chemistry", "value": 21, "unit": "mg/kg-day"}, {"measurement": "NOAEL", "setting": "Oryctolagus sp.", "value": "< 250", "unit": "mg/kg-day"}, {"measurement": "NOEC", "setting": "Oncorhynchus mykiss", "value": 5.4, "unit": "mg/L"}, {"measurement": "LD50", "setting": "Apis mellifera; duration: 48 hours, oral, unspecified", "value": 40.8, "unit": "µg/piece"}, {"measurement": "LD50", "setting": "Apis mellifera; duration: 72 hours, dermal", "value": 4.62, "unit": "µg/piece"}, {"measurement": "NOEC", "setting": "Daphnia magna", "value": 4.7, "unit": "mg/L"}, {"measurement": "LC50", "setting": "Colinus virginianus; duration: 5 days, diet", "value": "> 1160", "unit": "mg/kg-day"}, {"measurement": "LD50", "setting": "Colinus virginianus", "value": 2250, "unit": "mg/kg-day"}, {"measurement": "LC50", "setting": "Lepomis macrochirus", "value": "> 123", "unit": "µg/mL"}, {"measurement": "LC50", "setting": "Tagia sp.; acute, duration: 14 days, mortality", "value": 116, "unit": "mg/kg"}, {"measurement": "NOEC", "setting": "Tagia sp.; chronic/long-term, duration: 56 days, reproduction", "value": 27.3, "unit": "mg/kg"}, {"measurement": "NOAEL", "setting": "Coturnix japonica", "value": 229, "unit": "mg/kg-day"}]}
